# Measurements published in patent US20160151505A1 (KONINKLIJKE PHILIPS N.V., priority 2011, published 2016).
# Where two headings read alike, the source gives them in different places. Marks after values point to notes of the source that are not given here.
# How the values were obtained:
# [1] = Hydrolytic stability tests of tetrazines; format: physicochemical
# Source text: This solution was filtered and, the decrease of the absorption band at 525 nm was monitored using UV spectroscopy.
# [2] = Reactivity of tetrazines towards trans-cyclooct-4-ene-1-ol (competition experiment); settings: reference tetrazine 5; reaction with trans-cyclooct-4-ene-1-ol (axial isomer)
# Description: A competition experiment was performed to determine the reactivity ratio of a specific tetrazine and 3-(5-acetamido-2-pyridyl)-6-(2-pyridyl)-1,2,4,5-tetrazine (that was chosen as the reference tetrazine), in the inverse-electron demand Diels-Alder reaction with trans-cyclooct-4-ene-1-ol (“minor” isomer with OH in axial position, see: Whitham et al. J. Chem. Soc. (C), 1971, 883-896)).
# To acetonitrile (0.100 mL) was added 5 μL of a solution of the specific tetrazine in DMSO (25 mM) and 5 μL of a solution of the reference tetrazine in DMSO (25 mM). This mixture was diluted with water (0.9 mL), and the absolute amounts of both tetrazines were determined by HPLC-MS/PDA analysis. Subsequently, a solution of trans-cyclooct-4-ene-1-ol (axial isomer) in DMSO (25 μL 2.5 mM) was slowly added, and the mixture was stirred for 5 min. Again, the absolute amounts of both tetrazines were determined by HPLC-MS/PDA analysis, and conversions for both tetrazines was calculated. From these conversions, the reactivity ratio (R=k2,TCO/k2,Ref) of both tetrazines was calculated using the mathematical procedure from Ingold and Shaw (J. Chem. Soc., 1927, 2918-2926).
# [3] = Stability of trans-cyclooctene derivatives in PBS; settings: PBS buffer
# Description: (§1) 10 μL of a solution of the specific trans-cyclooctene derivative in dioxane (25 mM) was diluted with PBS buffer (3 mL), and this solution was stored at 20° C. in the dark.
# (§2) The fate of the TCO compound was monitored by HPLC-MS analysis, and an estimation of the half-life time was made based on the release of the model prodrug.
# [4] = Second-order rate constant determination of trans-cyclooctene derivatives with tetrazine; settings: UV-visible spectroscopy in acetonitrile at 20° C.
# Description: The kinetics of the inverse-electron demand Diels-Alder reaction of a trans-cyclooctene derivative with 3-(5-acetamido-2-pyridyl)-6-(2-pyridyl)-1,2,4,5-tetrazine, performed in acetonitrile at 20° C., was determined using UV-visible spectroscopy. A cuvette was filled with acetonitrile (3 mL) and equilibrated at 20° C. 3-(5-Acetamido-2-pyridyl)-6-(2-pyridyl)-1,2,4,5-tetrazine (2.50×10^−7 mol) was added, followed by the trans-cyclooctene derivative (2.50×10^−7 mol). The decay of the absorption at λ=540 nm was monitored, and from this curve the second-order rate constant, k2, was determined assuming second order rate kinetics.
# [5] = system: A431 squamous carcinoma cells; assay: Cell proliferation assay (MTT); format: cell-based; settings: Homo sapiens
# [6] = Reactivity of trans-cyclooctene derivatives: competition experiment; settings: reference trans-cyclooct-4-ene-1-ol (axial isomer)
# Description: A competition experiment was performed to determine the reactivity ratio of a specific trans-cyclooctene derivative and trans-cyclooct-4-ene-1-ol (axial isomer) (that was chosen as the reference), in the inverse-electron demand Diels-Alder reaction with bis(2-pyridyl)-1,2,4,5-tetrazine.
# This mixture was diluted with water (0.45 mL). Subsequently, a solution of bis(2-pyridyl)-1,2,4,5-tetrazine (6.25×10^−8 mol) in a mixture of acetonitrile (0.05 mL) and water (0.45 mL) was slowly added while stirring vigorously. After addition, the mixture was stirred for an additional 5 min. The conversion of both trans-cyclooctene derivatives was determined by HPLC-MS/PDA analysis, and from these conversions, the reactivity ratio (R=k2,TCO/k2,Ref) of the specific trans-cyclooctene derivative was calculated using the mathematical procedure from Ingold and Shaw (J. Chem. Soc., 1927, 2918-2926).
# [7] = Reactivity of tetrazines towards trans-cyclooct-4-ene-1-ol (competition experiment); settings: values marked *: 50:50 mixture of PBS and acetonitrile; reference tetrazine 5
# [8] = physchem; settings: buffer
# Description: as §1, §2
# [9] = Activation of doxorubicin prodrugs (release of doxorubicin); settings: after 1 hr at 20° C.
# Description: […] Next, […](E)-cyclooctene-doxorubicin conjugate (64, 2.67×10^−5 g; 2.50×10^−8 mol) was added.
# […] Next, (E)-cyclooctene-doxorubicin conjugate (68, 2.67×10^−5 g; 2.50×10^−8 mol) was added.
# [10] = values marked *: 50:50 mixture of PBS and acetonitrile
# [11] = stability in PBS at 20° C. t1/2, PBS, 20° C.
# [12] = stability in PBS t1/2, PBS, 37° C.
smiles,measurement,setting,value
Nc1ccc(-c2nnc(-c3ccccn3)nn2)nc1,half-life at 83 µM,"[1]; PBS buffer, PBS, 20° C.",340 h
same,"Reactivity ratio (R = k2,TZ/k2,Ref)",[2],0.4
O=C1CCCC(=O)N1c1ccc(-c2nnc(-c3ccccn3)nn2)nc1,half-life at 83 µM,"[1]; PBS buffer, PBS, 20° C.",24 h
same,"Reactivity ratio (R = k2,TZ/k2,Ref)",[2],1.6
c1cc(-c2nnc(-c3ccsc3)nn2)cs1,half-life at 83 µM,[1]; [10],> 300 h
Fc1ccc(-c2nnc(-c3ccc(F)cn3)nn2)nc1,half-life at 83 µM,"[1]; PBS buffer, PBS, 20° C.",115 h
FC(F)(F)c1ccc(-c2nnc(-c3ccc(C(F)(F)F)cn3)nn2)nc1,half-life at 83 µM,[1]; [10],3.6 h
CCCC(=O)Nc1ccc(-c2nnc(-c3ccc(C(F)(F)F)cn3)nn2)nc1,half-life at 83 µM,[1]; [10],35 h
CCCC(=O)Nc1ccc(-c2nnc(-c3ncccn3)nn2)nc1,half-life at 83 µM,"[1]; PBS buffer, PBS, 20° C.",3.2 h
same,"Reactivity ratio (R = k2,TZ/k2,Ref)",[2],2.7
CCCC(=O)Nc1ccc(-c2nnc(-c3ccc(F)cn3)nn2)nc1,half-life at 83 µM,"[1]; PBS buffer, PBS, 20° C.",117 h
same,"Reactivity ratio (R = k2,TZ/k2,Ref)",[2],0.95
c1cnc(-c2nnc(-c3cnccn3)nn2)cn1,half-life at 83 µM,"[1]; PBS buffer, PBS, 20° C.",0.68 h
same,"Reactivity ratio (R = k2,TZ/k2,Ref)",[2],1.5
c1cncc(-c2nnc(-c3cccnc3)nn2)c1,half-life at 83 µM,"[1]; PBS buffer, PBS, 20° C.",> 150 h
same,"Reactivity ratio (R = k2,TZ/k2,Ref)",[2],0.19
c1cc(-c2nnc(-c3ccncc3)nn2)ccn1,half-life at 83 µM,"[1]; PBS buffer, PBS, 20° C.",2.4 h
same,"Reactivity ratio (R = k2,TZ/k2,Ref)",[2],0.83
c1csc(-c2nnc(-c3cccs3)nn2)c1,half-life at 83 µM,[1]; [10],> 300 h
NCc1ccc(-c2nncnn2)cc1,half-life at 83 µM,"[1]; PBS buffer, PBS, 20° C.",183 h
same,"Reactivity ratio (R = k2,TZ/k2,Ref)",[2],0.77
Nc1ccc(-c2nnc(-c3ccccc3)nn2)cc1,half-life at 83 µM,[1]; [10],> 300 h
Nc1cccc(-c2nnc(-c3ccccc3)nn2)c1,half-life at 83 µM,[1]; [10],> 300 h
CCCNC(=O)c1ccc(-c2nnc(-c3ccccn3)nn2)nc1,half-life at 83 µM,"[1]; PBS buffer, PBS, 20° C.",4 h
c1ccc(-c2nnc(-c3ccccc3)nn2)cc1,half-life at 83 µM,[1]; [10],> 300 h
c1ccc(-c2nncnn2)nc1,half-life at 83 µM,"[1]; PBS buffer, PBS, 20° C.",2.7 h
CCCC(=O)Nc1ccc(-c2nncnn2)nc1,half-life at 83 µM,"[1]; PBS buffer, PBS, 20° C.",10.3 h
same,"Reactivity ratio (R = k2,TZ/k2,Ref)",[2],2.8
CCCC(=O)Nc1ccc(-c2nnc(C)nn2)nc1,half-life at 83 µM,"[1]; PBS buffer, PBS, 20° C.",300 h
same,"Reactivity ratio (R = k2,TZ/k2,Ref)",[2],0.18
CCCNC(=O)c1ccc(-c2nnc(-c3ncccn3)nn2)nc1,half-life at 83 µM,"[1]; PBS buffer, PBS, 20° C.",0.42 h
same,"Reactivity ratio (R = k2,TZ/k2,Ref)",[2],2
c1c[nH]c(-c2nnc(-c3ccc[nH]3)nn2)c1,half-life at 83 µM,[1]; [10],> 300 h
c1c[nH]c(-c2nnc(-c3ncc[nH]3)nn2)n1,"Reactivity ratio (R = k2,TZ/k2,Ref)",[2],1.2
"N[C@H]1CC/C=C/CC[C@H]1NC(=O)Oc1ccccc1 (relative stereo) [compound 36, cis-(E)-phenyl(8-aminocyclooct-4-en-1-yl)carbamate]",half-life at 83 µM,[3],27 h
same,rate contant* k2,[4],240 M⁻¹ s⁻¹
"NC1CC/C=C/CCC1NC(=O)Nc1ccccc1 (stereo not drawn) [47 major, cis phenyl((E)-8-aminocyclooct-4-en-1-yl)urea]",half-life at 83 µM,[3],> 480 h
"COc1cccc2c1C(=O)c1c(O)c3c(c(O)c1C2=O)C[C@@](O)(C(=O)CO)C[C@@H]3O[C@H]1C[C@H](N)[C@H](O)[C@H](C)O1 [Dox, Doxorubicin, reference compound]",IC50,"[5]; A-431, A431 cell line, 6 h incubation at 37° C. followed by medium replacement, read-out: IC50",38 ± 3 nM
"OC1CC/C=C/CCC1 (stereo not drawn) [axial isomer, trans-cyclooct-4-ene-1-ol, reference compound]",half-life at 83 µM,[3],> 72 h
same,"reactivity ratio** (R = k2,TCO/k2,Ref)",[6],1
"c1ccc(-c2nnc(-c3ccccn3)nn2)nc1 [compound 2, 3,6-bis(2-pyridyl)-1,2,4,5-tetrazine]",half-life at 83 µM,"[1]; PBS buffer, PBS, 20° C.",44 h
"CC(=O)Nc1ccc(-c2nnc(-c3ccccn3)nn2)nc1 [compound 5, 3-(5-acetamido-2-pyridyl)-6-(2-pyridyl)-1,2,4,5-tetrazine]",half-life at 83 µM,"[1]; PBS buffer, PBS, 20° C.",80 h
same,"Reactivity ratio (R = k2,TZ/k2,Ref)",[2],1
"Cc1nnc(-c2ccccn2)nn1 [compound 7, 3-(2-pyridyl)-6-methyl-1,2,4,5-tetrazine]",half-life at 83 µM,"[1]; PBS buffer, PBS, 20° C.",230 h
same,"Reactivity ratio (R = k2,TZ/k2,Ref)",[2],0.25
"Nc1ccccc1-c1nnc(-c2ccccc2N)nn1 [compound 9, 3,6-bis(2-aminophenyl)-1,2,4,5-tetrazine]",half-life at 83 µM,[1]; [10],> 300 h
same,"Reactivity ratio (R = k2,TZ/k2,Ref)",[7],<0 .01*
"Oc1ccc(-c2nnc(-c3ccc(O)cc3)nn2)cc1 [compound 11, 3,6-bis(4-hydroxyphenyl)-1,2,4,5-tetrazine]",half-life at 83 µM,[1]; [10],> 300 h
"Nc1ccc(-c2nnc(-c3ccc(N)cc3)nn2)cc1 [compound 13, 3,6-bis(4-aminophenyl)-1,2,4,5-tetrazine]",half-life at 83 µM,[1]; [10],> 300 h
"NCc1nnc(CN)nn1 [compound 20, 3,6-bis(aminomethyl)-1,2,4,5-tetrazine]",half-life at 83 µM,"[1]; PBS buffer, PBS, 20° C.",16 h
"COc1cc(COC(=O)NC2CC/C=C/CCC2N)cc(OC)c1OC (stereo not drawn) [compound 37, cis-(E)-3,4,5-trimethoxybenzyl(8-aminocyclooct-4-en-1-yl)carbamate]",half-life at 83 µM,[3],> 240 h
same,rate contant* k2,[4],300 M⁻¹ s⁻¹
Cc1ccccc1OC(=O)NC1CC/C=C/CCC1N (stereo not drawn) [compound 39],half-life at 83 µM,[3],192 h
COc1ccccc1OC(=O)NC1CC/C=C/CCC1N (stereo not drawn) [compound 41],half-life at 83 µM,[3],21 h
Cc1cccc(C)c1OC(=O)NC1CC/C=C/CCC1N (stereo not drawn) [compound 43],half-life at 83 µM,[3],> 480 h
CC(C)(C)c1ccccc1OC(=O)NC1CC/C=C/CCC1N (stereo not drawn) [compound 45],half-life at 83 µM,[3],> 480 h
"NC1/C=C/CCCCC1NC(=O)Oc1ccccc1 (stereo not drawn) [compound 56, trans phenyl(E)-2-aminocyclooct-3-en-1-yl carbamate]",half-life at 83 µM,[3],120 h
"O=C(Oc1ccccc1)N1C/C=C/CNCC1 [compound 61, (E)-phenyl 2,3,4,5-tetrahydro-1,4-diazocine-1(8H)-carboxylate]",half-life at 83 µM,[3],> 480 h
same,rate contant* k2,[4],47 M⁻¹ s⁻¹
"COc1cccc2c1C(=O)c1c(O)c3c(c(O)c1C2=O)C[C@@](O)(C(=O)CO)C[C@@H]3OC1CC(NC(=O)OCc2ccc(CC(=O)NC3CC/C=C/CCC3N)cc2)[C@H](O)C(C)O1 (stereo partly drawn) [compound 64, (E)-cyclooctene-doxorubicin conjugate]",IC50,"[5]; A-431, 6 h, A431 cell line, 6 h incubation at 37° C. followed by medium replacement",128 ± 17 nM
same,IC50,"[5]; A-431, 6 h, A431 cell line, in combination with tetrazine 29 (10 μM), 6 h incubation at 37° C. followed by medium replacement",49 ± 4 nM
same,IC50,"[5]; A-431, A431 cells, combination of the prodrug 64 and tetrazine 29",49 ± 4 nM
same,IC50,"[5]; A-431, A431 cells, prodrug alone",128 nM
same,half-life,[8]; [11],24 h
same,half-life,[8]; [12],3.6 h
same,doxorubicin released,"[9]; with 3,6-Diphenyl-1,2,4,5-tetrazine",48%
same,doxorubicin released,"[9]; with 3-(5-Acetamido-2-pyridyl)-6-(2-pyridyl)-1,2,4,5-tetrazine (5)",30%
same,doxorubicin released,"[9]; with 3-(5-Butyramido-2-pyridyl)-6-(2-pyrimidyl)-1,2,4,5-tetrazine",20%
same,doxorubicin released,"[9]; with 3-Methyl-6-(2-pyridyl)-1,2,4,5-tetrazine (7)",52%
same,doxorubicin released,"[9]; with 4-(1,2,4,5-Tetrazin-3-yl)phenylmethanamine",50%
"COc1cccc2c1C(=O)c1c(O)c3c(c(O)c1C2=O)C[C@@](O)(C(=O)CO)C[C@@H]3OC1CC(NC(=O)OCc2cc(C)c(CC(=O)NC3CC/C=C/CCC3N)c(C)c2)[C@H](O)C(C)O1 (stereo partly drawn) [compound 68, (E)-cyclooctene-doxorubicin conjugate]",half-life,[8]; [11],624 h
same,half-life,[8]; [12],149 h
